Results on three compounds are retold here after patent publication US7897626B2, “2-substituted thiazole-4-carboxamide derivatives, their preparation and use as pharmaceuticals” (Bayer Schering Pharma AG, priority 2007, dated 2011).

As a reminder, the EC50 is the midpoint of the concentration-response curve.

This assay concerns TLR7. In words: TLR-induced cytokine release (TNF-alpha) in human PBMC, TLR7 ligand stimulation. The note with it: human PBMC incubated 18 hours with test substance and TLR7 ligand; TNF-alpha in supernatant by ELISA; read-out: EC50 (TNF-α TLR7). It is filed as cell-based. The method, then:
TLR-Induced Cytokine Release in Human “Peripheral Blood Mononuclear Cells” (PBMC)
PBMCs isolated from human whole blood are stimulated using a TLR ligand.
The cytokine determination is carried out by means of ELISA kits; a proliferation/cell metabolism determination is carried out using Alamar Blue.
For the cell preparation, about 200 ml of blood are treated with an anticoagulant (e.g. citrate Monovettes). Per Leucosep tube, 15 ml of Histopaque (room temperature, RT) are poured in and forced downwards through the inserted frit by brief initial centrifugation (one minute at 1000×g, RT). 20 ml of blood are added to the tubes prepared in this way and centrifuged at 800×g for 15 minutes (RT). After centrifugation, the following layered arrangement results from the top to the bottom:
plasma-PBMC-Histopaque-filter disc-Histopaque-erythrocytes and granulocytes. The supernatant plasma is aspirated. The PBMC are transferred together with the underlying Histopaque to a new 50 ml tube, the contents of two Leucosep tubes always being added to one 50 ml tube. The 50 ml tubes are then filled to 50 ml with PBS. This cell suspension is centrifuged at 300×g (RT) for 10 minutes.
The liquid supernatant is tipped off and the cell pellet is resuspended with a little PBS and subsequently filled to 50 ml with PBS. This washing step is repeated twice. The resulting pellet is taken up in a defined volume of medium (with additives). For the testing of the substances, PBMC are incubated for 18 hours with titrated concentrations of the test substances, e.g. in the presence or absence of TLR7 or TLR9 ligands. On the next day, the supernatants are investigated for the content of TNF-alpha or other cytokines or chemokines by means of specific ELISA. The metabolic activity of the treated cells is determined with the aid of Alamar Blue.
For orientation: An ELISA detects its analyte on a solid surface through an enzyme-linked reagent.

Each structure is given as a SMILES string.

In the case of `Cc1ccc(C(N)=O)c(NC(=O)c2csc(-c3cn[nH]c3)n2)c1` [Example 3, N-[2-(Aminocarbonyl)-5-methylphenyl]-2-(1H-pyrazol-4-yl)thiazole-4-carboxamide], the half-maximal effective concentration (EC50) is 120 nM.
On to `Cc1cc(-c2nc(C(=O)Nc3ccccc3C(N)=O)cs2)cs1` [Example 2, N-[2-(Aminocarbonyl)phenyl]-2-(5-methyl-3-thienyl)-4-thiazole-carboxamide], for which the 50% effective concentration (EC50) stood at 3800 nM.
The same measure for `Cn1cc(NC(=O)c2csc(-c3cn[nH]c3)n2)c(C(N)=O)n1` [Example 1, 2-(1H-Pyrazol-4-yl)thiazole-4-(3-carbamoyl-1-methyl-1H-pyrazol-4-yl)-carboxamide]: 50 nM.
